BigSolDB 2.1

CCOC(=O)C1(c2ccccc2)CCN(CCC(C#N)(c2ccccc2)c2ccccc2)CC1
solubility (mole fraction)
Conditions | 278.15 K | 283.15 K | 288.15 K | 293.15 K | 298.15 K | 303.15 K | 308.15 K | 313.15 K | 318.15 K
in acetonitrile | 0.00208 | 0.00256 | 0.0033 | 0.00386 | 0.00492 | 0.0059 | 0.00738 | 0.00941 | 0.0126
in ethanol | 0.000882 | 0.00109 | 0.00127 | 0.00154 | 0.00193 | 0.00227 | 0.00277 | 0.0034 | 0.00432
in isopropanol | 0.000106 | 0.000155 | 0.000208 | 0.000274 | 0.000421 | 0.000601 | 0.000838 | 0.00114 | 0.00156
in methanol | 0.00341 | 0.00419 | 0.00501 | 0.0063 | 0.00759 | 0.00952 | 0.0118 | 0.0147 | 0.0186
in water | 4.09e-06 | 5.3e-06 | 6.84e-06 | 9.18e-06 | 1.14e-05 | 1.48e-05 | 1.91e-05 | 2.54e-05 | 3.28e-05
